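Briefly, cells in 96-well plates were exposed to five compound concentrations for 48 h, and endpoints were estimated by linear interpolation. GI50 marks 50% less growth. The concentration for full growth arrest is given as TGI.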
How the values were obtained:
Assay in all cases: inhibition of tumour cell growth, NCI panel, 48 h
[1] = tested on: MCF7 breast
[2] = tested on: MOLT-4 leukemia
[3] = tested on: HL-60(TB) leukemia
[4] = tested on: RXF 393 renal
[5] = tested on: SR leukemia
[6] = tested on: K-562 leukemia
[7] = tested on: HOP-92 NSCLC
[8] = tested on: SK-MEL-2 melanoma
[9] = tested on: SF-268 CNS
[10] = tested on: BT-549 breast
[11] = tested on: T-47D breast
[12] = tested on: ACHN renal
[13] = tested on: NCI-H522 lung
[14] = tested on: NCI-H226 lung
[15] = tested on: OVCAR-8 ovarian
[16] = tested on: SK-MEL-28 melanoma
[17] = tested on: SN12C renal
[18] = tested on: OVCAR-4 ovarian
[19] = tested on: IGROV1 ovarian
[20] = tested on: UACC-257 melanoma
[21] = tested on: A549 NSCLC
[22] = tested on: SF-295 CNS
[23] = tested on: CCRF-CEM leukemia
[24] = tested on: SK-OV-3 ovarian
[25] = tested on: UACC-62 melanoma
[26] = tested on: HT29 colon
[27] = tested on: SNB-19 CNS
[28] = tested on: HCC-2998 colon
[29] = tested on: HCT-116 colon
[30] = tested on: DU-145 prostate
[31] = tested on: SK-MEL-5 melanoma
[32] = tested on: EKVX NSCLC
[33] = tested on: KM12 colon
[34] = tested on: SNB-75 CNS
[35] = tested on: SF-539 CNS
[36] = tested on: RPMI-8226 leukemia
[37] = tested on: COLO 205 colon
[38] = tested on: SW-620 colon
[39] = tested on: NCI/ADR-RES ovarian
[40] = tested on: MDA-MB-435
[41] = tested on: PC-3 prostate
[42] = tested on: TK-10 renal
[43] = tested on: U251 CNS
[44] = tested on: NCI-H460 lung
[45] = tested on: OVCAR-5 ovarian
[46] = tested on: CAKI-1 renal
[47] = tested on: NCI-H23 lung
[48] = tested on: A498 renal
[49] = tested on: UO-31 renal
[50] = tested on: HOP-62 NSCLC
[51] = tested on: 786-0 renal
[52] = tested on: MDA-MB-231 breast
[53] = tested on: HS 578T breast
[54] = tested on: LOX IMVI melanoma
[55] = tested on: MALME-3M melanoma
[56] = tested on: HCT-15 colon
[57] = tested on: M14 melanoma

## CO/N=C1\CCc2c(sc(NC(=O)c3cccc(C(F)(F)F)c3)c2C(N)=O)C1
[1]
  GI50: 2370 nM
  TGI: > 100000 nM
[2]
  GI50: > 100000 nM
  TGI: > 100000 nM
[3]
  GI50: > 100000 nM
  TGI: > 100000 nM
[4]
  GI50: 1910 nM
  TGI: 3650 nM
[5]
  GI50: > 100000 nM
  TGI: > 100000 nM
[6]
  GI50: > 100000 nM
  TGI: > 100000 nM
[7]
  GI50: 1560 nM
  TGI: 4060 nM
[8]
  GI50: 4080 nM
  TGI: 96300 nM
[9]
  GI50: 4250 nM
  TGI: > 100000 nM
[10]
  GI50: 3530 nM
  TGI: > 100000 nM

## Cc1cc2nc3c4cc(C#N)ccc4n(CCN(C)C)c3nc2cc1C
[11]
  GI50: 2300 nM
[12]
  GI50: 324 nM
  TGI: 1480 nM
[13]
  GI50: 505 nM
  TGI: 1960 nM
[1]
  GI50: 1200 nM
  TGI: 6720 nM
[14]
  GI50: 1230 nM
  TGI: 8430 nM
[15]
  GI50: 584 nM
  TGI: 3920 nM
[2]
  GI50: 429 nM
  TGI: > 32600 nM
[16]
  GI50: 2270 nM
[3]
  GI50: 1160 nM
  TGI: 4370 nM
[17]
  GI50: 770 nM
  TGI: > 20800 nM
[18]
  GI50: 1650 nM
  TGI: 5730 nM
[19]
  GI50: 1070 nM
  TGI: 5600 nM
[20]
  GI50: 686 nM
  TGI: 2060 nM
[21]
  GI50: 666 nM
  TGI: 3020 nM
[22]
  GI50: 932 nM
  TGI: > 22500 nM
[23]
  GI50: 1220 nM
  TGI: > 33800 nM
[24]
  GI50: 919 nM
  TGI: 9980 nM
[4]
  GI50: 918 nM
  TGI: 2830 nM
[25]
  GI50: 1400 nM
  TGI: 5210 nM
[26]
  GI50: 546 nM
  TGI: 6800 nM
[27]
  GI50: 978 nM
  TGI: > 25200 nM
[28]
  GI50: 1030 nM
  TGI: 2440 nM
[29]
  GI50: 429 nM
  TGI: 1760 nM
[30]
  GI50: 1100 nM
  TGI: > 32700 nM
[5]
  GI50: 362 nM
  TGI: 3590 nM
[6]
  GI50: 682 nM
  TGI: > 34100 nM
[31]
  GI50: 1690 nM
  TGI: 3510 nM
[32]
  GI50: 1710 nM
  TGI: > 23800 nM
[33]
  GI50: 1690 nM
  TGI: > 29700 nM
[34]
  GI50: 951 nM
  TGI: 2670 nM
[35]
  GI50: 966 nM
[36]
  GI50: 1100 nM
  TGI: 4610 nM
[37]
  GI50: 456 nM
  TGI: 1630 nM
[38]
  GI50: 411 nM
  TGI: 1970 nM
[39]
  GI50: 637 nM
  TGI: 7080 nM
[40]
  GI50: 1010 nM
  TGI: 3390 nM
[7]
  GI50: 634 nM
  TGI: 4580 nM
[41]
  GI50: 1490 nM
  TGI: > 21100 nM
[8]
  GI50: 2180 nM
  TGI: 6150 nM
[42]
  GI50: 1980 nM
  TGI: > 23200 nM
[43]
  GI50: 860 nM
[9]
  GI50: 1620 nM
  TGI: > 20700 nM
[44]
  GI50: 416 nM
  TGI: 2510 nM
[45]
  GI50: 1450 nM
  TGI: > 22600 nM
[46]
  GI50: 381 nM
  TGI: 3420 nM
[47]
  GI50: 507 nM
  TGI: 2370 nM
[48]
  GI50: 1930 nM
[49]
  GI50: 312 nM
  TGI: 2240 nM
[10]
  GI50: 2400 nM
[50]
  GI50: 755 nM
[51]
  GI50: 1340 nM
  TGI: > 20000 nM
[52]
  GI50: 1060 nM
  TGI: > 20600 nM
[53]
  GI50: 1590 nM
  TGI: > 21500 nM
[54]
  GI50: 601 nM
  TGI: 2800 nM
[55]
  GI50: 1380 nM
  TGI: 3600 nM
[56]
  GI50: 1010 nM
  TGI: 6170 nM
[57]
  GI50: 1360 nM
  TGI: 3820 nM

## CCNC(=O)N1CCc2cc(OC)c(OCCc3ccc(OC)cc3)cc2C1c1ccc([N+](=O)[O-])cc1C (stereo not drawn)
[11]
  GI50: 3340 nM
  TGI: > 100000 nM
[12]
  GI50: 875 nM
  TGI: > 100000 nM
[13]
  GI50: 730 nM
  TGI: 3410 nM
[1]
  GI50: 540 nM
  TGI: > 100000 nM
[14]
  GI50: 2090 nM
  TGI: > 100000 nM
[15]
  GI50: 812 nM
  TGI: > 100000 nM
[2]
  GI50: 485 nM
  TGI: > 100000 nM
[16]
  GI50: 869 nM
  TGI: > 100000 nM
[3]
  GI50: 608 nM
  TGI: 10600 nM
[17]
  GI50: 1840 nM
  TGI: > 100000 nM
[18]
  GI50: 2800 nM
  TGI: > 100000 nM
[19]
  GI50: 759 nM
  TGI: > 100000 nM
[20]
  GI50: 3540 nM
  TGI: > 100000 nM
[21]
  GI50: 840 nM
  TGI: > 100000 nM
[22]
  GI50: 576 nM
  TGI: > 100000 nM
[23]
  GI50: 662 nM
  TGI: > 100000 nM
[24]
  GI50: 2830 nM
  TGI: > 100000 nM
[25]
  GI50: 547 nM
  TGI: > 100000 nM
[26]
  GI50: 706 nM
  TGI: 6040 nM
[27]
  GI50: 1330 nM
  TGI: > 100000 nM
[28]
  GI50: 1950 nM
  TGI: > 100000 nM
[29]
  GI50: 437 nM
  TGI: > 100000 nM
[30]
  GI50: 1870 nM
  TGI: > 100000 nM
[5]
  GI50: 327 nM
  TGI: > 100000 nM
[6]
  GI50: 381 nM
  TGI: > 100000 nM
[31]
  GI50: 794 nM
  TGI: 3590 nM
[32]
  GI50: > 100000 nM
  TGI: > 100000 nM
[33]
  GI50: 4640 nM
  TGI: > 100000 nM
[34]
  GI50: 680 nM
  TGI: 6950 nM
[35]
  GI50: 702 nM
  TGI: 6770 nM
[36]
  GI50: 631 nM
  TGI: 7140 nM
[37]
  GI50: 797 nM
  TGI: > 100000 nM
[38]
  GI50: 551 nM
  TGI: > 100000 nM
[40]
  GI50: 491 nM
  TGI: > 100000 nM
[7]
  GI50: 1040 nM
  TGI: 8030 nM
[41]
  GI50: 559 nM
  TGI: > 100000 nM
[8]
  GI50: 2370 nM
  TGI: > 100000 nM
[43]
  GI50: 580 nM
  TGI: > 100000 nM
[9]
  GI50: 881 nM
  TGI: > 100000 nM
[44]
  GI50: 368 nM
  TGI: 3300 nM
[45]
  GI50: 2140 nM
  TGI: > 100000 nM
[46]
  GI50: 1090 nM
  TGI: > 100000 nM
[48]
  GI50: 1550 nM
  TGI: 6690 nM
[49]
  GI50: 1540 nM
  TGI: > 100000 nM
[10]
  GI50: 1670 nM
  TGI: 6120 nM
[50]
  GI50: 2280 nM
  TGI: > 100000 nM
[51]
  GI50: 619 nM
  TGI: > 100000 nM
[52]
  GI50: 797 nM
  TGI: > 100000 nM
[53]
  GI50: 1570 nM
  TGI: 7350 nM
[54]
  GI50: 387 nM
  TGI: 7650 nM
[55]
  GI50: 4120 nM
  TGI: > 100000 nM
[56]
  GI50: 382 nM
  TGI: > 100000 nM
[57]
  GI50: 759 nM
  TGI: > 100000 nM
